Results on three compounds are retold here after patent US10172822B2, “Pharmaceutical use of 3-benzylsulfonylpropionitrile” (Olatec Therapeutics LLC, priority 2013, dated 2019).

The test system of assay [1] is tail flick reaction to heat. In words: tail flick test in mice (49° C. water bath). It is filed as in vivo. The procedure:
The tail flick test is a test of the pain response in animals. The tail flick test is used in basic pain research and to measure the effectiveness of analgesics, by observing the tail flick reaction to heat in an animal. This test assesses the nociceptive response to a local pain stimulus, and the ability of a drug to inhibit this response.
Vehicle control (DMSO) and test compound 3-benzylsulfonylpropionitrilein in DMSO were administered by oral gavage to mice with a volume of 5 mL/kg, immediately prior to testing, at time zero. The test compound was administered at a dosage of 500 mg/kg in DMSO. Positive control morphine in water was administered at time zero by subcutaneous injection at 8 mg/kg to mice. […] The purpose of morphine is […] to serve as a comparison with the test compound. Each group had 10 mice.
The response of mice to heat stimulus was evaluated by measuring the time of tail-flick or tail-flick latency from 49° C. water bath. Briefly, the animal was held with its tail hanging down. Approximately 2 inches of the tail was immersed in a beaker of water at 38±1° C. for about 30 seconds, and this was done twice to acclimate the animal to the procedure.
Subsequently, approximately 2 inches of the tail was immersed in a beaker of water at 49±1° C., at which point a timer was started.
Tail flick measurements were made at 0, 30, 60, and 120 minutes post administration of the dosage of test compound, vehicle, or morphine. An ANOVA was done, and if p<0.05, a Dunnett's t test was employed to calculate significant difference between vehicle control and test compound treated groups. A pairwise Student's t test was used to calculate differences between the morphine group and the control group. […] Analysis with p-values <0.05 is considered significant.
Background: Thermal pain tests record how soon the animal reacts.

The subject of assay [2] is arachidonic acid-induced ear swelling. In words: topical arachidonic acid-induced ear swelling model in mice. It is filed as in vivo. The procedure: The test compound, indomethacin (positive control), and vehicle were evaluated for anti-inflammatory activity in a topical arachidonic acid-induced ear swelling model in mice. Male ICR mice weighing 22±2 g were used and randomly divided; the test compound and vehicle control had 10 mice, and indomethacin had 5 mice. Arachidonic Acid (0.5 mg in 20 μl of acetone:ethanol/1:1) was applied topically to the anterior and posterior surfaces of the right ear of each mice. Test substances and vehicle, as listed in Table 1 were similarly applied 30 min before and 15 min after arachidonic acid application. The thickness of the right ear and the left ear was measured and the difference calculated as an indication of the inflammation in the right ear. Ear swelling was measured by a Dyer model micrometer gauge at 60 and 90 minutes after arachidonic acid application as an index of inflammation. Percent inhibition was calculated according to the formula: Ic−It/Ic×100, where Ic and It refers to increase of ear thickness (mm) in control and treated mice, respectively. ANOVA and Dunnett's test were employed to ascertain significant difference between vehicle control and treated groups. Significance is set at P<0.05 level.

Molecules are shown by their SMILES.

As for `CN1CC[C@]23c4c5ccc(O)c4O[C@H]2[C@@H](O)C=C[C@H]3[C@H]1C5` [morphine], the “tail flick latency compared with vehicle-treated mice” value is listed as “statistically significant tail flick latency” in assay [1] (subcutaneous injection 8 mg/kg, 30 and 60 minutes post dosing); “not” in assay [1] (subcutaneous injection 8 mg/kg, 120 minutes post dosing).

With `COc1ccc2c(c1)c(CC(=O)O)c(C)n2C(=O)c1ccc(Cl)cc1` [Indomethacin, indomethacin, reference compound], the “% Inhibition of ear swelling” value in assay [2] (topical application 30 min before and 15 min after arachidonic acid, measured at 90 minutes after arachidonic acid, relative to vehicle) is on record as 58%.

Take `N#CCCS(=O)(=O)Cc1ccccc1` [3-Benzylsulfonylpropionitrile, 3-benzylsulfonylpropionitrile]: the “anti-inflammatory activity in the mouse ear swelling model” value in assay [2] (applied topically, inflammation induced by arachidonic acid) was “anti-inflammatory”. Moreover, in assay [1] (oral administration 500 mg/kg in DMSO, 30, 60, and 120 minutes post dosing), the “tail flick latency compared with vehicle-treated mice” value was “statistically significant tail flick latency”.
